Read-outs that look alike come from different tables or passages of the source. Non-standard residues stand in square brackets, D forms with d. Residues, ends and D or L forms follow the SMILES beside them. *: point of attachment. X1 = O=C(O)CN1CCN(CC(=O)O)CCN([C@H](CCC(=O)*)C(=O)O)CCN(CC(=O)O)CC1; Benzoyl(4-SiFtBu2) = CC(C)(C)[Si](F)(c1ccc(C(=O)*)cc1)C(C)(C)C; Nle = CCCC[C@H](N)C(=O)O; dDap = NC[C@@H](N)C(=O)O

The values below come from article PMC9783573, “Introduction of a SiFA Moiety into the D-Glutamate Chain of DOTA-PP-F11N Results in Radiohybrid-Based CCK-2R-Targeted Compounds with Improved Pharmacokinetics In Vivo” (Pharmaceuticals, 2022).

In one data set the target is T1, CCK-2R (Rattus norvegicus, UniProt P30553).
T1 construct: CCK-2R expressing rat pancreatic cancer cells AR42J (CLS GmbH, Eppelheim,; host or cells: AR42J rat pancreatic cancer cells
T1 sequence (P30553 1-452): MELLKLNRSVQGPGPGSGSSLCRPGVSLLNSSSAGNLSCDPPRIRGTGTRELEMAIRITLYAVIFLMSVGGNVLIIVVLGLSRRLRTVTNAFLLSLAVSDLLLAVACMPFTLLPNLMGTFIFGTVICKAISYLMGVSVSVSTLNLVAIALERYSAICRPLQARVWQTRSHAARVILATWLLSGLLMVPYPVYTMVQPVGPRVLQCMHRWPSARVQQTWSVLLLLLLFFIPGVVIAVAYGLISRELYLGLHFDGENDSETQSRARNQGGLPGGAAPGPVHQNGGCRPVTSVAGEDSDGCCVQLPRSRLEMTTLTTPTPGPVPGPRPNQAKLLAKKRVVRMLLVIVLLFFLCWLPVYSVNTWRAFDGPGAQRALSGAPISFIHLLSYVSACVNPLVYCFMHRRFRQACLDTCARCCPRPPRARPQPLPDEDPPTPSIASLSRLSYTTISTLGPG
Kind of data set: Competitive binding (IC50) on AR42J cells with [177Lu]Lu-DOTA-PP-F11N as radiolabelled reference. The conditions noted are these: natLu-labelled peptide, AR42J cells 2.0 × 10^5/well, 3 h, 37 °C, [177Lu]Lu-DOTA-PP-F11N 0.3 pmol/well. The method, then: Detailed description of all cell-based experiments is provided in the Supplementary Materials. In brief, competitive binding studies were conducted on AR42J cells (2.0 × 10^5 cells per 1 mL/well) via incubation at 37 °C for 3 h using [^177Lu]Lu-DOTA-PP-F11N (0.3 pmol) as a radiolabelled reference (n = 3).
Cell Culture. CCK-2R expressing rat pancreatic cancer cells AR42J (CLS GmbH, Eppelheim, Germany) were cultivated in monolayers in CELLSTAR ® cell culture flasks acquired from Greiner Bio-One GmbH (Frickenhausen, Germany) at 37 °C in a humidified atmosphere (5% CO2) using a HERAcell 150i-Incubator (Thermo Fisher Scientific Inc., Waltham, United States). As nutrient medium RPMI 1640 medium, supplemented with 5 mM L-Gln 5 mL non-essential amino acids (100×) and 10% FCS, was used. Furthermore, a Dulbecco’s PBS solution with 0.1% EDTA (v/v) was applied to detach the cells for cell passaging. The detached cells were counted using a Neubauer hemocytometer ( Paul Marienfeld, Lauda-Königshofen, Germany). In addition, all operations under sterile conditions were accomplished using a MSC-Advantage safety workbench (Thermo Fisher Scientific Inc., Waltham, United States).
Determination of IC50. AR42J cells (2.0 × 10^5 cells/well) were seeded into 24-well plates 24 ± 2 h prior to testing, using 1 mL of nutrient medium (RPMI 1640, 5 mM L-Gln, 5 mL non-essential amino acids (100×), 10% FCS). Cells were incubated at 37 °C in a humidified atmosphere (5% CO2).
After removal of the medium, each well was washed with 500 μL PBS. For the cell-based assay, 200 μL of nutrient medium (+5% BSA), [177Lu]Lu-DOTA-PP-F11N (25 μL, 0.3 pmol) as a radiolabeled reference and 25 μL of the peptide of interest in increasing concentrations (10−10 to 10−4 M) in triplicate were added to the cells. Thereafter, the assay was incubated for 3 h at 37 °C and thereafter, the supernatant was collected. The cells were washed with 300 μL PBS and the collected supernatant fractions were unified.
After lysis of the cells with NaOH (300 μL, 1 N) for 15 min, the respective wells were washed with NaOH (300 μL, 1 N) and both fractions were unified. The radioactivity of both, the supernatant and the lysed fractions was quantified using a γ-counter (PerkinElmer Inc., Waltham, United States ). The obtained data were evaluated via the GraphPad PRISM software ( GraphPad Software Inc., La Jolla, United States), which calculates the halfmaximal inhibitory concentration ( IC50) of the peptides. […]

Data set [1] concerns AR42J tumour-bearing CB17-SCID mice. Kind of data set: Biodistribution at 24 h p.i. in AR42J tumour-bearing CB17-SCID mice. The data set is classed as in vivo. To be noted: vs [177Lu]Lu-DOTA-PP-F11N. The method, then: Figure 4 Biodistribution of the reference compound, [^177Lu]Lu-DOTA-PP-F11N (blue), the α-linked [^177Lu]Lu-(R)-DOTAGA-rhCCK-9 (red) and the γ-linked [^177Lu]Lu-(R)-DOTAGA-rhCCK-16 (green) in selected organs (%ID/g) at 24 h p.i. in AR42J tumour-bearing CB17-SCID mice (100 pmol each, n = 4). Data is expressed as mean ± SD.
All animal experiments were conducted in accordance with general animal welfare regulations in Germany (German animal protection act, in the edition of the announcement, dated 18 May 2006, as amended by Article 280 of 19 June 2020, approval no. ROB-55.2-1-2532.Vet_02-18-109 by the General Administration of Upper Bavaria) and the institutional guidelines for the care and use of animals. CB17-SCID mice of both genders and aged 2–12 months (Charles River Laboratories International Inc., Sulzfeld, Germany) were allowed to acclimate at the in-house animal facility for at least one week prior to tumour cell inoculation was performed. Tumour xenografts were generated using AR42J cells (5.0 × 10^6 cells per 200 µL) suspended in a 1/1 mixture (v/v) of RPMI 1640 medium and Cultrex® Basement Membrane Matrix Type 3 (Trevigen, Gaithersburg, MD, USA). This suspension was inoculated subcutaneously onto the right shoulder and animals were used when tumour volume was >100 mm^3 (1–2 week after inoculation). Exclusion criteria for animals from an experiment were either weight loss higher than 20%, a tumour size above 1500 mm^3, an ulceration of the tumour, respiratory distress or a change of behaviour. None of these criteria applied to any animal from the experiment. Neither randomisation nor blinding was applied in the allocation of the experiments. Health status is SPF according to FELASA.
For biodistribution studies, the ^177Lu-labelled compound (approx. 2–3 MBq, 100 pmol) was injected into a lateral tail vein (n = 4) of anesthetised (2% isoflurane) AR42J tumour-bearing CB-17-SCID mice. At 24 h post-injection (p.i.), the mice were euthanised. Thereafter, the pertinent organs were removed, weighed and measured using a γ-counter.

For data set [2] the following is noted: first patient studies; cited from earlier work.

One may read the IC50 as the concentration needed to halve the response being measured. In the case of `CCCC[C@H](NC(=O)[C@H](Cc1c[nH]c2ccccc12)NC(=O)CNC(=O)[C@H](Cc1ccc(O)cc1)NC(=O)[C@H](C)NC(=O)[C@@H](CCC(=O)O)NC(=O)[C@@H](CCC(=O)O)NC(=O)[C@@H](CCC(=O)O)NC(=O)[C@@H](CCC(=O)O)NC(=O)[C@@H](CCC(=O)O)NC(=O)[C@@H](CCC(=O)O)NC(=O)[C@@H](CCC(=O)O)NC(=O)[C@@H](CCC(=O)O)NC(=O)[C@@H](CNC(=O)c1ccc([Si](F)(C(C)(C)C)C(C)(C)C)cc1)NC(=O)CC[C@H](C(=O)O)N1CCN(CC(=O)O)CCN(CC(=O)O)CCN(CC(=O)O)CC1)C(=O)N[C@@H](CC(=O)O)C(=O)N[C@@H](Cc1ccccc1)C(N)=O` [[nat/177Lu]Lu-(R)-DOTAGA-rhCCK-9, metal not drawn] (X1-[dDap](Benzoyl(4-SiFtBu2))[dE][dE][dE][dE][dE][dE][dE][dE]AYGW[Nle]DF-NH2), the half-maximal inhibitory concentration (IC50) on CCK-2R amounted to 55.3 ± 7.8 nM. For the same compound, in data set [1], the “fold higher activity levels in the tumour than the reference ligand” value is given as 3 fold.

For `CSCC[C@H](NC(=O)[C@H](Cc1c[nH]c2ccccc12)NC(=O)CNC(=O)[C@H](Cc1ccc(O)cc1)NC(=O)[C@H](C)NC(=O)[C@@H](CCC(=O)O)NC(=O)[C@@H](CCC(=O)O)NC(=O)[C@@H](CCC(=O)O)NC(=O)[C@@H](CCC(=O)O)NC(=O)[C@@H](CCC(=O)O)NC(=O)[C@@H](CCC(=O)O)NC(=O)CN1CCN(CC(=O)O)CCN(CC(=O)O)CCN(CC(=O)O)CC1)C(=O)N[C@@H](CC(=O)O)C(=O)N[C@@H](Cc1ccccc1)C(N)=O` [[nat/177Lu]Lu-CP04, metal not drawn, reference compound], the IC50 on CCK-2R (listed as [^natLu]Lu-CP04, read-out: IC50) was 11 to 13 nM.

With `CCCC[C@H](NC(=O)[C@H](Cc1c[nH]c2ccccc12)NC(=O)CNC(=O)[C@H](Cc1ccc(O)cc1)NC(=O)[C@H](C)NC(=O)[C@@H](CCC(=O)O)NC(=O)[C@@H](CCC(=O)O)NC(=O)[C@@H](CCC(=O)O)NC(=O)[C@@H](CCC(=O)O)NC(=O)[C@@H](CCC(=O)O)NC(=O)[C@@H](CCC(=O)O)NC(=O)CN1CCN(CC(=O)O)CCN(CC(=O)O)CCN(CC(=O)O)CC1)C(=O)N[C@@H](CC(=O)O)C(=O)N[C@@H](Cc1ccccc1)C(N)=O` [[nat/177Lu]Lu-DOTA-PP-F11N, metal not drawn, reference compound], on CCK-2R (read-out: IC50), the 50% inhibitory concentration (IC50) lay in the range of 11 to 13 nM. Also, the “median (interquartile range) absorbed tumour dose” value in data set [2] is reported as 0.88 Gy/GBq.

In the case of `CCCC[C@H](NC(=O)[C@H](Cc1c[nH]c2ccccc12)NC(=O)CNC(=O)[C@H](Cc1ccc(O)cc1)NC(=O)[C@H](C)NC(=O)CC[C@@H](NC(=O)CC[C@@H](NC(=O)CC[C@@H](NC(=O)CC[C@@H](NC(=O)CC[C@@H](NC(=O)CC[C@@H](NC(=O)[C@@H](CNC(=O)c1ccc([Si](F)(C(C)(C)C)C(C)(C)C)cc1)NC(=O)CC[C@H](C(=O)O)N1CCN(CC(=O)O)CCN(CC(=O)O)CCN(CC(=O)O)CC1)C(=O)O)C(=O)O)C(=O)O)C(=O)O)C(=O)O)C(=O)O)C(=O)N[C@@H](CC(=O)O)C(=O)N[C@@H](Cc1ccccc1)C(N)=O` [[nat/177Lu]Lu-(R)-DOTAGA-rhCCK-16, metal not drawn], on CCK-2R, the IC50 was 20.4 ± 2.7 nM. The “fold higher activity levels in the tumour than the reference ligand” value in data set [1] turned out to be 8 fold.
